How the values were obtained:
Assay type in all cases: in vivo, rat
[1] = system: Sprague Dawley rats; test: NIS-L syndrome in open field arena; conditions: male rats; for animals displaying NIS-L in open field arena: tested PND 270
Method: To determine if the syndrome could be elicited by novel stimuli other than the MWM, all rats were tested in the Novel Water Maze (NWM) (Kant, G. J., Pharmacol. Biochem. Behav. [1993] 44:287-295) approximately 120 days after the MWM testing (i.e. PND 240).
The open field apparatus consisted of a 1.5 m diameter circular arena sectioned into 32 grids (16 central grids: 9 cm×9 cm; 16 peripheral grids). The open field was chosen as another environment that provided novelty while at the same time being less physiologically challenging than the previously described two water maze tasks. All rats were given a single 10 min trial in the open field arena and scored for the presence or absence of NIS-L by an experimenter blind to treatment. All testing procedures were conducted according to the guidelines of the Canadian Council on Animal Care.

[2] = system: Sprague Dawley rats; test: Daily assessment of pups until weaning for overt toxicity and weight gain; conditions: 5 or 20 μg/kg s.c. daily PND 8-PND 14
Method: Within 24 hr of birth, offspring of untimed-pregnant Sprague Dawley rats (Charles River Laboratories, St. Constant, PQ) were culled to 10 pups/litter (5 males and 5 females). From post-natal day (PND) 8-PND 14, pups were weighed and given a single daily injection (s.c.; 10 ml/kg) of either saline, or 5 or 20 μg/kg domoic acid (DOM). These doses are well below those normally required to induce toxicity in animals of this age (Doucette, T. A. et al., Neurotox. Teratol. [2003] 25:473-479, and Doucette, T. A., et al., Neurotox. Teratol. [2000] 22:863-869). Pups were assessed daily until weaning (on PND 22) for overt signs of toxicity, and all pre- and post-weaning testing was conducted with the experimenter blind to treatment. All procedures were conducted in accordance with the guidelines of the Canadian Council on Animal Care. […] Rats received no additional drug treatment after PND 14. On PND 120, animals were tested for spatial learning and memory in the Morris Water Maze (MWM) (8 trials/day over 6 consecutive days), using a standard reversal procedure (McNamara, R. K. and Skelton, R. W., Brain Res. Brain Res. Rev. [1993] 18:33-49). […]

[3] = system: Sprague Dawley rats; test: NIS-L syndrome during Novel Water Maze (NWM) testing; conditions: for animals exhibiting NIS-L syndrome in NWM: tested PND 240; for animals displaying NIS-L syndrome during NWM testing: separate cohort, tested at 15 months
Method: To determine if the syndrome could be elicited by novel stimuli other than the MWM, all rats were tested in the Novel Water Maze (NWM) (Kant, G. J., Pharmacol. Biochem. […]
The Novel Water Maze (NWM) (Kant, G. J., Pharmacol. Biochem. Behav. [1993] 44:287-295) was selected based on its provision of a novel environment within which to evaluate the novelty impact on the precipitation of NIS-L. Animals were tested for 6 consecutive swim trials of 60 sec duration and scored for the presence or absence of NIS-L behaviours, by an observer blind to treatment during the 120 sec inter-trial period.

[4] = system: Sprague Dawley rats; test: NIS-L syndrome during Morris Water Maze (MWM) testing
Method: Within 24 hr of birth, offspring of untimed-pregnant Sprague Dawley rats (Charles River Laboratories, St. Constant, PQ) were culled to 10 pups/litter (5 males and 5 females). […] These doses are well below those normally required to induce toxicity in animals of this age (Doucette, T. A. et al., Neurotox. Teratol. [2003] 25:473-479, and Doucette, T. A., et al., Neurotox. Teratol. [2000] 22:863-869). Pups were assessed daily until weaning (on PND 22) for overt signs of toxicity, and all pre- and post-weaning testing was conducted with the experimenter blind to treatment. All procedures were conducted in accordance with the guidelines of the Canadian Council on Animal Care. […] Rats received no additional drug treatment after PND 14. On PND 120, animals were tested for spatial learning and memory in the Morris Water Maze (MWM) (8 trials/day over 6 consecutive days), using a standard reversal procedure (McNamara, R. K. and Skelton, R. W., Brain Res. Brain Res. Rev. [1993] 18:33-49). While on the escape platform during the 60 second inter-trial interval, a significant number of DOM-treated rats presented with abnormal behaviour characterized by a combination of hunched body posture, facial clonus, mastication with tongue-protrusion, repetitive head extensions and bobbing, repetitive eye blinking/squinting, and vibrissae and ear twitching, often in combination with forelimb clonus. Presentation of all of the above behaviours was termed “novelty-induced seizure-like (NIS-L) syndrome”. Of note, the expression of this syndrome was not consequent to earlier drug-induced toxicity or seizures, nor was it spontaneous.
The Morris Water Maze (MWM) consisted of a circular tank measuring 1.5 m in diameter. Water temperature was maintained at approximately 21° C. and was made opaque by a layer of polypropylene pellets floated on the surface. Four points around the edge of the pool were arbitrarily designated as north (N), south (S), east (E), and west (W), allowing the apparatus to be divided into 4 corresponding quadrants (NE, SE, NW, SW). A clear plexiglass escape platform was submerged approximately 2 cm below the water surface and placed, initially, in the NE quadrant of the maze (alternate locations for the reversal task were implemented on Day 3 and Day 5). Extra-maze cues consisted of laboratory furniture and lights (held constant throughout the experiment). A video camera was mounted above the center of the pool and all performance was recorded for subsequent analyses. […] Escape latencies and inter-trial behaviour was recorded by observers blind to experimental treatment.

With `C/C(=C/C=C/[C@@H](C)C(=O)O)[C@H]1CN[C@H](C(=O)O)[C@H]1CC(=O)O` [DOM, domoic acid] the “animals displaying NIS-L in open field arena” value ([1]; 5 μg/kg PND 8-14) was 50%, the “animals displaying NIS-L in open field arena” value ([1]; 20 μg/kg PND 8-14) was 66.7% and the “weight gain between groups” value [2] was “no significant differences in weight gain”. The “signs of physical or behavioural toxicity prior to weaning” value ([2]; pups assessed until PND 22) was “None of the pups displayed any signs of physical or behavioural toxicity”, the “animals exhibiting NIS-L syndrome in NWM” value ([3]; female rats, 5 μg/kg PND 8-14) was 33.3% and the “animals exhibiting NIS-L syndrome in NWM” value ([3]; female rats, 20 μg/kg PND 8-14) was 100%. For the same compound, the “animals displaying NIS-L syndrome during NWM testing” value ([3]; female rats, 20 μg/kg PND 8-14) was 50%, the “animals exhibiting NIS-L syndrome in NWM” value ([3]; male rats, 5 μg/kg PND 8-14) was 33.3% and the “animals exhibiting NIS-L syndrome in NWM” value ([3]; male rats, 20 μg/kg PND 8-14) was 66.7%. The “animals displaying NIS-L syndrome during NWM testing” value ([3]; male rats, 20 μg/kg PND 8-14) was 50%.
`C=C(C)[C@H]1CN[C@H](C(=O)O)[C@H]1CC(=O)O` [KA, kainic acid] was tested, and the “rats exhibiting NIS-L syndrome in open field arena” value ([1]; 25 μg/kg neonatally) was 62.5%, the “rats exhibiting NIS-L syndrome in open field arena” value ([1]; 100 μg/kg neonatally) was 33.3% and the “rats with NIS-L syndrome (study parallel in design to Example 1)” value (shortened to “rats with NIS-L syndrome”) ([4]; female rats, 25 μg/kg neonatally) was 16.7%. For the same compound, the “rats with NIS-L syndrome” value ([4]; female rats, 100 μg/kg neonatally) was 57.1%, the “rats with NIS-L syndrome” value ([4]; male rats, 25 μg/kg neonatally) was 62.5% and the “rats with NIS-L syndrome” value ([4]; male rats, 100 μg/kg neonatally) was 62.5%.

Source: US7521589B2, “Developmental animal model of temporal lobe epilepsy” (University of Prince Edward Island, priority 2003, dated 2009)
